Consider 46 compounds from patent US7001921B1, “Cell adhesion inhibitors” (Biogen Idec MA Inc., priority 1995, dated 2006).

One may read the IC50 as the concentration at which inhibition is half-maximal. A low value points to greater potency in that assay.

The experiment addresses T1, VLA4 (Homo sapiens, UniProt P05556+P13612).
T1 construct: endogenous in cells; host or cells: Ramos cells
The experiment in a line: Inhibition of VLA4-dependent adhesion to BSA-CS1 (labelled Ramos cells). It is filed as cell-based. Conditions: binding of BCECF-AM labelled Ramos cells to CS1 peptide-coated wells, 2 mM MnCl2, 30 minutes at room temperature; IC50 range. The text has this:
For example, the cell adhesion inhibitory activity of these compounds may be measured by determining the concentration of inhibitor required to block the binding of VLA-4-expressing cells to fibronectin- or CS1-coated plates. In this assay microtiter wells are coated with either fibronectin (containing the CS-1 sequence) or CS-1. If CS-1 is used, it must be conjugated to a carrier protein, such as bovine serum albumin, in order to bind to the wells. Once the wells are coated, varying concentrations of the test compound are then added together with appropriately labelled, VLA-4-expressing cells. Alternatively, the test compound may be added first and allowed to incubate with the coated wells prior to the addition of the cells. The cells are allowed to incubate in the wells for at least 30 minutes. Following incubation, the wells are emptied and washed. Inhibition of binding is measured by quantitating the fluorescence or radioactivity bound to the plate for each of the various concentrations of test compound, as well as for controls containing no test compound.
VLA-4-expressing cells that may be utilized in this assay include Ramos cells, Jurkat cells, A375 melanoma cells, as well as human peripheral blood lymophocytes (PBLs). The cells used in this assay may be fluorescently or radioactively labelled.
This assay was used to assess the potency of VLA4-directed inhibitory compounds of this invention.
We dissolved BSA-SMCC (Pierce Chemical, Rockford, Ill.; Catalog # 77115) in H2O at a concentration of 10 mg/mL. [SEQ ID NO:4]: […](“Cys-Tyr-CS1 peptide”), which we synthesized by conventional solid phase chemistry and purified by HPLC, was dissolved in 10 mM HEPES pH 5, 50 mM NaCl and 0.1 mM EDTA also at a concentration of 10 mg/mL. We then mixed 500 μL of BSA-SMCC, 250 μL of Cys-Tyr-CS1 peptide and 75 μL of […] and allowed the conjugation reaction to proceed for 30 minutes. We stopped the reaction by adding 1 μL of beta-mercaptoethanol. Samples were analyzed for cross-linking by SDS-PAGE. This reaction produced multiple molecules of the Cys-Tyr-CS1 peptide conjugate to each BSA molecule.
We coated the wells of a Linbro titertek polystyrene 96-well flat bottom plate (Flow Laboratories, Maclean, Va.; catalog #76-231-05) with 100 μL of the above-described BSA-CS1 solution diluted to 1 μg/mL in 0.05 M NaHCO3 (15 mM NaHCO3, 35 mM Na2CO3) pH 9.2. Some wells were not coated with CS1 in order to assess non-specific cell binding (NSB). The plate was then incubated overnight at 4° C.
Following this incubation, the contents of the wells were removed by inverting and blotting the plate. All of the wells were then blocked with 100 μL of 1% BSA in PBS, 0.02% NaN3, for a minimum of one hour at room temperature.
3. Preparation of Fluorescently Labelled Ramos Cells Ramos cells are grown, maintained and labelled in RPMI 1640 culture medium containing 1% BSA. Just prior to running the assay, we added 2′,7′-bis-(2-carboxyethyl)5 (and -6) carboxyfluorescein acetoxymethyl ester (“BCECF-AM”; Molecular Probes Inc., Eugene, Oreg.; catalog #B-1150) to a final concentration of 2 μM to a culture of Ramos cells (4×10^6 cells/mL). We incubated the cells for 20 minutes at 37° C.
Following labelling, the cells were washed twice in assay buffer (24 mM TRIS, 137 mM NaCl, 2.7 mM KCl, pH 7.4, containing 0.1% BSA and 2 mM glucose) to remove any cations originating from the culture medium. The cells were then resuspended in assay buffer to 4×10^6 cells/mL and 2 mM MnCl2 was added to upregulate VLA4 on the surface of the cells.
Immediately prior to running the assay, we removed the BSA blocking solution from the 96-well plates and washed the wells with 100 μL of assay buffer. We then added to each well 25 μL of test cell adhesion inhibitory compound at 2× the final concentration and 25 μL of the labelled Ramos cells. Final concentrations were selected across a range of anticipated IC50s, usually between 0.01 nM–10 μM. […]

T1 sequence (P13612 34-1032): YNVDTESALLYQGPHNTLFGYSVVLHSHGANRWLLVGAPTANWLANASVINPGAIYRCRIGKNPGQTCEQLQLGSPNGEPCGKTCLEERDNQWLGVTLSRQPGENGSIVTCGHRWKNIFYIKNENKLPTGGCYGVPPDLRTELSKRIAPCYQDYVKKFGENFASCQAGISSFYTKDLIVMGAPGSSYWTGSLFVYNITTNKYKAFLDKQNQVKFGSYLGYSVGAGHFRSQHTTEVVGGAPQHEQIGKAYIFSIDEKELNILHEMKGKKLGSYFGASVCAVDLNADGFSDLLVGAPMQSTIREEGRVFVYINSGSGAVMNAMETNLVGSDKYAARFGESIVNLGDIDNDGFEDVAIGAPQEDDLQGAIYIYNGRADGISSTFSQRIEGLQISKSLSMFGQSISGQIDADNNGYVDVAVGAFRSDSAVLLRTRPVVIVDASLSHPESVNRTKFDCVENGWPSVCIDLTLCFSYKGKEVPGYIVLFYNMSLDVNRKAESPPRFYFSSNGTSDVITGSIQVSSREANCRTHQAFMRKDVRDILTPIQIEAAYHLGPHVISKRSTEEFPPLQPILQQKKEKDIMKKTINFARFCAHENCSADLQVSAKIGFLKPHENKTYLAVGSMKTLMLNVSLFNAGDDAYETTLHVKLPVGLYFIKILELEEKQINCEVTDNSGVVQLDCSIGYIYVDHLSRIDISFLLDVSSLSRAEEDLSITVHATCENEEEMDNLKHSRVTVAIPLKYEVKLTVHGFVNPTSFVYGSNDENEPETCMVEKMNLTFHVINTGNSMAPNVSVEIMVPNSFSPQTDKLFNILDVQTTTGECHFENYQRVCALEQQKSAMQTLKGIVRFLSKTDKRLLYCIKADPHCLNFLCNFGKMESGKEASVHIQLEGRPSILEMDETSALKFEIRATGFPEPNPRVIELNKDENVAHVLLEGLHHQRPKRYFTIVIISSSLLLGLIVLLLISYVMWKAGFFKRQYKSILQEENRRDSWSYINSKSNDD
T1 sequence (P05556 21-798): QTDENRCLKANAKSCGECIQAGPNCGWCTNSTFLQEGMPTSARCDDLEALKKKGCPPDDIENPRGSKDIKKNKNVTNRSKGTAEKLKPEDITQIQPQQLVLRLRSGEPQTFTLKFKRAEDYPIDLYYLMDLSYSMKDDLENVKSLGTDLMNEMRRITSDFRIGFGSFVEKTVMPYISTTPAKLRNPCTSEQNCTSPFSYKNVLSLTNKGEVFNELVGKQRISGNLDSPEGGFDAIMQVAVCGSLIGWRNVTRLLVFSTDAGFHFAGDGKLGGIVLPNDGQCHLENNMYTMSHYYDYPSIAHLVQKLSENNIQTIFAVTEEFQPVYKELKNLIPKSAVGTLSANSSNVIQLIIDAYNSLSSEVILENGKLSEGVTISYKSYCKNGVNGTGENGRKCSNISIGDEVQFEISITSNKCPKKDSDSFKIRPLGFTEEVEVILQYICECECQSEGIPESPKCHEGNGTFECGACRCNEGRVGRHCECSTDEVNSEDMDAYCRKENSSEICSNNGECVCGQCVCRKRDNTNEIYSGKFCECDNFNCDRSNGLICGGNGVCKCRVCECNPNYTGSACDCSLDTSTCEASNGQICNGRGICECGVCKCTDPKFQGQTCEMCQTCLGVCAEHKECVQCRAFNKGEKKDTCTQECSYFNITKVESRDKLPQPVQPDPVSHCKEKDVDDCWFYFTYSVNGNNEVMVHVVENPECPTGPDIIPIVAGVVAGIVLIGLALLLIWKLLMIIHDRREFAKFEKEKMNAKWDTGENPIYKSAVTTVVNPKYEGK

On to `CC(C)CC(NC(=O)Cc1ccc(NC(=O)OC(C)(C)C)cc1)C(=O)NC(CC(=O)O)c1ccccc1` (stereo not shown) [compound 1145], for which the IC50 was in the range of 0.05 to 10 µM.

For the compound `COc1cccc(C(CC(=O)O)NC(=O)C(CC(C)C)NC(=O)Cc2ccc(O)cc2)c1` (stereo not shown) [compound 1146], the IC50 was 0.05 to 10 µM.

As to `CC(=O)Nc1ccc(CC(=O)NC(CC(C)C)C(=O)NC(CC(=O)O)c2ccccc2)cc1` (stereo not shown) [compound 1147], the IC50 was in the range of 0.05 to 10 µM.

The compound `CC(C)CC(NC(=O)Cc1ccc(O)cc1)C(=O)NC(CC(=O)O)c1cccnc1` (stereo not shown) [compound 1148] showed an IC50 above 10 µM.

Regarding `CC(C)CC(NC(=O)c1ccc2ccccc2n1)C(=O)NC(CC(=O)O)c1ccccc1` (stereo not shown) [compound 1149], the IC50 was above 10 µM.

Compound `CC(C)CC(NC(=O)CCc1ccccc1)C(=O)NC(CC(=O)O)c1ccccc1` (stereo not shown) [compound 1150] showed an IC50 above 10 µM.

On to `CC(C)CC(NC(=O)OCc1ccccc1)C(=O)NC(CC(=O)O)c1cccnc1` (stereo not shown) [compound 1153], for which the IC50 was above 10 µM.

`CC(C)CC(NC(=O)Cc1ccccc1)C(=O)NC(CC(=O)O)Cc1ccccc1` (stereo not shown) [compound 1157] registered an IC50 above 10 µM.

For `CC(C)CC(NC(=O)Cc1ccccc1)C(=O)NC(CC(=O)O)c1ccc2c(c1)OCO2` (stereo not shown) [compound 1158], the IC50 lay in the range of 0.05 to 10 µM.

The compound `COc1ccccc1C(CC(=O)O)NC(=O)C(CC(C)C)NC(=O)Cc1ccccc1` (stereo not shown) [compound 1159] had an IC50 above 10 µM.

Turning to `CSCCC(NC(=O)Cc1ccc(NC(=O)Nc2ccccc2)cc1)C(=O)NC(CC(=O)O)c1ccc2c(c1)OCO2` (stereo not shown) [compound 1163], the IC50 was 0.05 to 10 µM.

`CSCCC(NC(=O)Cc1ccccc1)C(=O)NC(CC(=O)O)c1ccc2c(c1)OCO2` (stereo not shown) [compound 1164] registered an IC50 of 0.05 to 10 µM.

Compound `Cc1cccc(NC(=O)Nc2ccc(CC(=O)NC(CC(C)C)C(=O)NC(CC(=O)O)c3ccc4c(c3)OCO4)cc2)c1` (stereo not shown) [compound 1168] gave an IC50 of 0.05 to 10 µM.

`CC(C)CC(NC(=O)Cc1ccc(NC(=O)NCc2ccccc2)cc1)C(=O)NC(CC(=O)O)c1ccc2c(c1)OCO2` (stereo not shown) [compound 1169] showed an IC50 of 0.05 to 10 µM.

As for `O=C(O)CC(NC(=O)C(CC(=O)N1CCOCC1)NC(=O)Cc1ccc(NC(=O)Nc2ccccc2)cc1)c1ccc2c(c1)OCO2` (stereo not shown) [compound 1170], the IC50 was 0.05 to 10 µM.

In the case of `COc1ccc(C(CC(=O)O)NC(=O)C(CC(C)C)NC(=O)Cc2ccc(O)cc2)cc1` (stereo not shown) [compound 1173], the IC50 fell in the range of 0.05 to 10 µM.

As to `COc1ccc(C(CC(=O)O)NC(=O)C(CCSC)NC(=O)Cc2ccc(O)cc2)cc1` (stereo not shown) [compound 1174], the IC50 lay within 0.05 to 10 µM.

In the case of `COc1ccc(C(CC(=O)O)NC(=O)C(CCSC)NC(=O)Cc2ccccc2)cc1` (stereo not shown) [compound 1175], the IC50 is 0.05 to 10 µM.

For `O=C(O)CC(NC(=O)C(CC(=O)N1CCSCC1)NC(=O)Cc1ccc(NC(=O)Nc2ccccc2)cc1)c1ccc2c(c1)OCO2` (stereo not shown) [compound 1176], the IC50 was in the range of 0.05 to 10 µM.

`C#CCN(C)C(=O)CC(NC(=O)Cc1ccc(NC(=O)Nc2ccccc2)cc1)C(=O)NC(CC(=O)O)c1ccc2c(c1)OCO2` (stereo not shown) [compound 1177]: the IC50 is 0.05 to 10 µM.

The compound `COc1ccc(C(CC(=O)O)NC(=O)C(CC(C)C)NC(=O)Cc2ccccc2)cc1` (stereo not shown) [compound 1178] returned an IC50 of 0.05 to 10 µM.

In the case of `Cc1ccccc1NC(=O)Nc1ccc(CC(=O)NC(CC(C)C)C(=O)NC(CC(=O)O)c2ccc3c(c2)OCO3)cc1` (stereo not shown) [compound 1179], the IC50 was below 0.05 µM.

As to `COc1ccc(C(CC(=O)O)NC(=O)C(CC(C)C)NC(=O)Cc2ccc(NC(=O)Nc3nccs3)cc2)cc1` (stereo not shown) [compound 1180], the IC50 lay within 0.05 to 10 µM.

As for `CC(C)CC(NC(=O)Cc1ccc(NC(=O)Nc2cccc(Cl)c2)cc1)C(=O)NC(CC(=O)O)c1ccc2c(c1)OCO2` (stereo not shown) [compound 1181], the IC50 is 0.05 to 10 µM.

`CC(C)CC(NC(=O)Cc1ccc(NC(=O)Nc2ccncc2)cc1)C(=O)NC(CC(=O)O)c1ccc2c(c1)OCO2` (stereo not shown) [compound 1182] gave an IC50 of 0.05 to 10 µM.

Consider `CC(C)CC(NC(=O)Cc1ccc(NC(=O)Nc2ccccc2Cl)cc1)C(=O)NC(CC(=O)O)c1ccc2c(c1)OCO2` (stereo not shown) [compound 1185], for which the IC50 was below 0.05 µM.

`CC(C)CC(NC(=O)CCCNC(=O)Nc1ccccc1)C(=O)NC(CC(=O)O)c1ccccc1` (stereo not shown) [compound 1187] displayed an IC50 above 10 µM.

In turn, `CC(C)CC(NC(=O)C1(c2ccccc2)CC1)C(=O)NC(CC(=O)O)c1ccc2c(c1)OCO2` (stereo not shown) [compound 1188] gave an IC50 above 10 µM.

With `CC(C)CC(NC(=O)C1CCc2ccccc21)C(=O)NC(CC(=O)O)c1ccccc1` (stereo not shown) [compound 1189], the IC50 is above 10 µM.

Take `COc1ccc(C(CC(=O)O)NC(=O)C(CC(C)C)NC(=O)Cc2ccc(NC(=O)Nc3ccccc3C)cc2)cc1` (stereo not shown) [compound 1190]: the IC50 is below 0.05 µM.

`O=C(O)CC(NC(=O)C(CCN1CCOCC1)NC(=O)Cc1ccc(NC(=O)Nc2ccccc2)cc1)c1ccc2c(c1)OCO2` (stereo not shown) [compound 1191] displayed an IC50 of 0.05 to 10 µM.

For the compound `COc1ccc(C(CC(=O)O)NC(=O)C(CC(C)C)NC(=O)Cc2ccc(NC(=O)Nc3ccccc3OC)cc2)cc1` (stereo not shown) [compound 1192], the IC50 is below 0.05 µM.

Regarding `COc1ccc(C(CC(=O)O)NC(=O)C(CC(C)C)N(C)C(=O)Cc2ccc(NC(=O)Nc3ccccc3)cc2)cc1` (stereo not shown) [compound 1193], the half-maximal inhibitory concentration (IC50) was in the range of 0.05 to 10 µM.

For the compound `COc1ccc(C(CC(=O)O)NC(=O)C(CC(C)C)NC(=O)Cc2ccc(NC(=O)Nc3ccccn3)cc2)cc1` (stereo not shown) [compound 1194], the IC50 lay within 0.05 to 10 µM.

Turning to `COc1ccc(C(CC(=O)O)NC(=O)C(CC(C)C)NC(=O)Cc2ccc(NC(=O)Nc3ccccc3)cc2)cc1OC` (stereo not shown) [compound 1196], the IC50 is below 0.05 µM.

`CC(C)CC(NC(=O)Cc1ccc(NC(=O)N2CCOCC2)cc1)C(=O)NC(CC(=O)O)c1ccc2c(c1)OCO2` (stereo not shown) [compound 1198]: the IC50 was above 10 µM.

`COc1ccc(C(CC(=O)O)NC(=O)C(CC[S+](C)[O-])NC(=O)Cc2ccc(NC(=O)Nc3ccccc3)cc2)cc1` (stereo not shown) [compound 1199]: the IC50 is 0.05 to 10 µM.

Compound `CCc1ccccc1NC(=O)Nc1ccc(CC(=O)NC(CC(C)C)C(=O)NC(CC(=O)O)c2ccc3c(c2)OCO3)cc1` (stereo not shown) [compound 1200] displayed an IC50 of 0.05 to 10 µM.

Compound `CC(C)CC(NC(=O)Cc1ccc(NC(=O)Nc2ccccc2[N+](=O)[O-])cc1)C(=O)NC(CC(=O)O)c1ccc2c(c1)OCO2` (stereo not shown) [compound 1201] yielded an IC50 of 0.05 to 10 µM.

In turn, `CC(C)CC(NC(=O)Cc1ccc(NC(=O)Nc2ccccc2C(C)C)cc1)C(=O)NC(CC(=O)O)c1ccc2c(c1)OCO2` (stereo not shown) [compound 1206] showed an IC50 below 0.05 µM.

`COc1ccc(C(CC(=O)O)NC(=O)C(CC(C)C)NC(=O)Cc2ccc(NC(=O)Nc3ccccc3C(C)C)cc2)cc1` (stereo not shown) [compound 1207] returned an IC50 above 10 µM.

As to `CCc1ccccc1NC(=O)Nc1ccc(CC(=O)NC(CC(C)C)C(=O)NC(CC(=O)O)c2ccc(OC)cc2)cc1` (stereo not shown) [compound 1208], the IC50 fell in the range of 0.05 to 10 µM.

As to `CC(C)CC(NC(=O)Cc1ccc(NC(=O)Nc2ccccc2C(C)(C)C)cc1)C(=O)NC(CC(=O)O)c1ccc2c(c1)OCO2` (stereo not shown) [compound 1209], the IC50 is above 10 µM.

`Cc1ccccc1NC(=O)Nc1ccc(CC(=O)NC(CC(C)C)C(=O)NC(CC(=O)O)c2ccc3c(c2)OCCO3)cc1` (stereo not shown) [compound 1210] gave an IC50 below 0.05 µM.

As to `CN(C)C(=O)CC(NC(=O)Cc1ccc(NC(=O)Nc2ccccc2)cc1)C(=O)NC(CC(=O)O)c1ccc2c(c1)OCO2` (stereo not shown) [compound 1214], the IC50 fell in the range of 0.05 to 10 µM.

As for `CN(C)CCC(NC(=O)Cc1ccc(NC(=O)Nc2ccccc2)cc1)C(=O)NC(CC(=O)O)c1ccc2c(c1)OCO2` (stereo not shown) [compound 1215], the IC50 is above 10 µM.
